What was measured:
[1] = test system: TGFβ1-induced epithelial-mesenchymal transition (EMT) in A549 adenocarcinoma cells; assay: TGFβ1-induced EMT in A549 cells (image-based screen, immunoblot); type: cell-based
Description: High throughput screen and high content imaging analysis. A549 cell-based screening of inhibitors to TGFβ1-induced EMT from a bioactive small molecule library was performed in 384-well plate format and the images were captured and analyzed using GE IN Cell 2000 as described previously^16.
(§1) Immunoblot. Pulverized tissue and cells were lysed in RIP A buffer (150 mM NaCl, 50 mM Tris, pH 8.0, 1% Triton X-100, 0.5% sodium deoxycholate, 0.1% SDS, supplemented with protease and phosphatase inhibitors) and analyzed by immunoblotting. Densitometry was quantified using NIH Imaged software.

[2] = test system: C57BL/6 mice, intratracheal bleomycin; assay: Bleomycin fibrosis model; type: in vivo; conditions: daily gavage 100 mg/kg from day 10 after bleomycin, day 21
Description: For histological assessment of lung collagen, frozen sections of the left lung were stained using Masson's Trichrome stain kit (American MasterTech, Lodi, Calif., USA).
Bleomycin fibrosis model. Eight-week old C57BL/6 mice were intratracheally instilled with saline or 1.9 units/kg of bleomycin (Sigma-Aldrich). Mice were implanted with osmotic pumps loaded with ellagic acid salt (24 mg/kg/day, Day 10-Day 17), fed with red raspberry diet (Day 0-Day 21), or gavaged with corilagin (100 mg/kg, Day 10-Day 21). Controls were treated with control pump, control diet, or vehicle in the same formulation. The lungs were lavaged and followed by OCT embedding for imaging or snap freezing in liquid nitrogen for protein extraction or hydroxyproline assay.
Collagen content Lung or aorta collagen content was evaluated using hydroxyproline assay. Briefly, whole left lung tissue or aorta was hydrolyzed in 1 ml 12N HCl at 110° C. for 24 h and the hydroxyproline was detected by incubating with Chloramine T and p-dimethylaminobenzaldehyde and the absorbance was measured at 550 nm. Each sample was run in triplicate. Collagen content in lung or aorta tissues was expressed as micrograms of collagen per lung or aorta and was converted from micrograms of hydroxyproline.

human LOXL2 [3] = biological target: T1, human LOXL2 (Homo sapiens, UniProt Q9Y4K0); assay: Collagen crosslinking induced by recombinant LOXL2 in lung fibroblasts (Sircol assay); type: cell-based; conditions: primary human lung fibroblasts, 7 days
T1 sequence (Q9Y4K0 26-774): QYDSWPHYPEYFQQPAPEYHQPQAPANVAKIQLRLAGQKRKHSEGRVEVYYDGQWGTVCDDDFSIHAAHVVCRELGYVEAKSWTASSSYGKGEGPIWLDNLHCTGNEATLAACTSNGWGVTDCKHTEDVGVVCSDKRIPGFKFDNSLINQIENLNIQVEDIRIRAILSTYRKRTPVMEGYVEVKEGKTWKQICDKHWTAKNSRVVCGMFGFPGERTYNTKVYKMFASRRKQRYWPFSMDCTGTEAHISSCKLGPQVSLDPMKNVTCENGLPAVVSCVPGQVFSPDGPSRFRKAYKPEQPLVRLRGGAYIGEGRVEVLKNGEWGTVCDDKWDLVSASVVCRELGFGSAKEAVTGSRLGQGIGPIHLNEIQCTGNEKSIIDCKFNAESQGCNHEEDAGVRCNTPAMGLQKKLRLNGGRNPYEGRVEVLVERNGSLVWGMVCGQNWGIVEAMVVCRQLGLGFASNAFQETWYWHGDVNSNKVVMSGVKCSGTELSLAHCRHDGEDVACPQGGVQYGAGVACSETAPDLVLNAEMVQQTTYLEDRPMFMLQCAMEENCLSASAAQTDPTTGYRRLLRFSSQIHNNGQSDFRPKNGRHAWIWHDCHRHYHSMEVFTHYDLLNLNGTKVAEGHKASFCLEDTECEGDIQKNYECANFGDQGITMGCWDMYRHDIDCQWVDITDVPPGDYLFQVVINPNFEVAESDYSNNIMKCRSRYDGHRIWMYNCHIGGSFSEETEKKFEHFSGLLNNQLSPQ
Description: Preparation of insoluble cross-linked collagen. Fibroblasts were cultured on 10 cm dish until confluent. The medium was then changed to Dulbecco's modified Eagle's medium (DMEM) containing 5% FBS, 100 μM L-ascorbic acid with 500 kDa Dextran Sulfate at 100 μg/ml, and 50 ng/ml recombinant human LOXL2 (rhLOXL2) for 7 days^21,22. The cell layer was extracted with 0.5 M acetic acid and 0.1 mg/ml pepsin overnight at 4° C. The leftover insoluble fraction was further extracted and the insoluble cross-linked collagen measured using Sircol Insoluble Collagen Assay kit according to manufacture's instruction.

[4] = test system: TGFβ1 signaling (p-smad3) in A549 cells; assay: TGFβ1-induced p-smad generation in cells (immunoblot); type: cell-based; conditions: 1 μM
Description: as §1

[5] = Bronchoalveolar lavage: immune cells and injury markers; type: in vivo; conditions: BALF, bleomycin or saline treated mice
Description: Bronchoalveolar lavage. After the trachea was exposed, a 20-G catheter was inserted into the trachea through a small incision. 1 ml cold PBS was instilled into the mouse lungs followed by gentle aspiration repeated for three times. All the bronchoalveolar lavage fluid (BALF) was centrifuged and cell pellet was re-suspended in erythrocyte (RBC) lysis buffer (Sigma, St. Louis) followed by re-centrifugation. Cell number was counted using hemocytometer. Cell types of BALF were determined by morphology following Diff-quick stain of cytospin slides. About 500 cells were counted for each sample in order to determine the cell types. Macrophages account for more than 80% of the cells in BALF and were collected by centrifugation. After centrifugation, the supernatant was collected to measure total protein content using the BCA assay (Pierce), while the cell pellet was lysed for immunoblotting or RNA isolation.

[6] = biological target: T2, wild-type or mutant human LOXL2 (Homo sapiens, UniProt Q9Y4K0); assay: LOX activity of conditioned media from NMuMG cells expressing wild-type or mutant LOXL2; type: cell-based; conditions: 1 μM, 6 h, K614N, K759R, all except the K731 mutant
T2 construct: Flag (C); expressed in transfected cells; host or cells: NMuMG cells, conditioned medium
T2 sequence (Q9Y4K0 26-774): T1 sequence (Q9Y4K0 26-774)
Description: LOX activity assay LOX activity of recombinant human LOXL2 or conditioned medium collected from cells expressing LOXL2 was measured using a Fluorimetric Lysyl Oxidase Activity Assay Kit (Abeam, Cambridge, Mass.) following a protocol provided by the manufacturer. Briefly, 50 μl of sample was mixed with an equal volume of assay reaction mixture containing LOX substrate, horseradish peroxidase (HRP) and HRP substrate in the presence and absence of testing inhibitors and D-penicillamine (DPA), a LOX inhibitor. The mixture was incubated for 30 min at 37° C. in darkness. The fluorescence increase was then measured with a fluorescence plate reader (BMG Lab Tech FLUOstar) at Ex/Em=540/590 nm. Sample buffer or medium alone without LOXL2 was used for determination of the background fluorescence.
Site-directed mutagenesis of LOXL2. Site-directed mutagenesis was performed to generate K614N, K731R, and K759R point mutations using Phusion Site-Directed Mutagenesis Kit (Thermo Scientific, Waltham, Mass.) according to manufacturer's instructions. A pcDNA3-hLOXL2-flag plasmid containing the cDNA fragment of wild-type human LOXL2 fused with a flag tag at the C-terminus, was used as the template DNA^18. Mutations were confirmed by DNA sequencing. […]

[7] = test system: TGFβ1 signaling (p-smad3, snail 1); assay: TGFβ1 signaling in NMuMG cells expressing wild-type or mutant LOXL2; type: cell-based; conditions: 1 μM
Description: as §1
Site-directed mutagenesis of LOXL2. Site-directed mutagenesis was performed to generate K614N, K731R, and K759R point mutations using Phusion Site-Directed Mutagenesis Kit (Thermo Scientific, Waltham, Mass.) according to manufacturer's instructions. A pcDNA3-hLOXL2-flag plasmid containing the cDNA fragment of wild-type human LOXL2 fused with a flag tag at the C-terminus, was used as the template DNA^18. Mutations were confirmed by DNA sequencing. The primers and their complementary strands used are: K614N forward 5′-[…]-3′ (SEQ ID NO:2), K614N reverse 5′-[…]-3′(SEQ ID NO:3); K731R forward 5′-[…]-3′(SEQ ID NO:4), K731R reverse 5′-[…]-3′(SEQ ID NO:5); K759R forward 5′-[…]-3′(SEQ ID NO:6), and K759R reverse 5′-[…]-3′(SEQ ID NO:7).

human LOXL2 [8] = biological target: T1, human LOXL2; assay: LOXL2-induced stabilization of snail 1 protein in NMuMG cells; type: cell-based; set-up: Flag (C); expressed in transfected cells; host or cells: NMuMG cells; conditions: 0.5 μM, 24 h
Description: as §1

In the case of `O=C(O[C@@H]1O[C@@H]2COC(=O)c3cc(O)c(O)c(O)c3-c3c(cc(O)c(O)c3O)C(=O)O[C@H]([C@H]1O)[C@@H]2O)c1cc(O)c(O)c(O)c1` [corilagin, Corilagin], the IC50 ([1]; Homo sapiens, A549 cells stimulated with TGFβ1, 48 h) is reported as 50 nM, the “inhibitory effects on EMT after knockdown of LOXL2” value ([1]; LOXL2 RNAi, A549 cells, 1 μM) is reported as “completely abrogated” and the “bleomycin-induced total lung collagen, fibronectin, snail 1, and p-smad3” value [2] is reported as “marked attenuation”. The IC50 (human LOXL2 [3]) was 10 nM, the “TGFβ1-induced p-smads after longer pre-incubation” value ([4]; pre-incubation 3 h or 6 h) was “completely suppressed” and the “effects on p-smad3 generation after knockdown of LOXL2” value ([4]; A549 cells and primary lung fibroblasts, 6 h) was “completely blocked”. The “immune cell numbers or markers of injury” value [5] was “no effect”, the “inhibition of LOX activity of wt and point mutant LOXL2” value [6] was “completely inhibited” and the “inhibition of TGFβ1 signaling in cells expressing K731R LOXL2” value [7] was “completely resistant”. For the same compound, the “LOXL2-induced stabilization of snail 1 protein” value (human LOXL2 [8]) was “blocked”.

— patent US20210009551A1, “COMPOUNDS AND METHODS FOR TREATING FIBROSIS OR CANCER” (THE REGENTS OF THE UNIVERSITY OF CALIFORNIA, priority 2016, published 2021)
